In patent US20240366770A1, “DEGRADATION OF BRUTON'S TYROSINE KINASE (BTK) BY CONJUGATION OF BTK INHIBITORS WITH E3 LIGASE LIGAND AND METHODS OF USE” (BeiGene Switzerland GmbH, priority 2021, published 2024):

Experiments:
[1] = tested on: HEK-293 cells; experiment: HEK-293 cytotoxicity detection (CellTiter-Glo); type: cell-based; details: Homo sapiens; HEK-293 cells, 72 h incubation, CellTiter-Glo luminescence, IC50 of cell proliferation inhibition; read-out: HEK293
Summary of the method: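 Four-parameter logistic fitting of percent inhibition versus concentration gives IC50. Luminescent ATP read-out (CellTiter-Glo) after 72 h compound treatment of HEK-293 cells, 8 doses in 4-fold steps from a 5 mM 500× DMSO stock, final DMSO 0.2%.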

[2] = molecular target: T1, BTK (Homo sapiens, UniProt Q06187); experiment: BTK degradation in TMD-8 cells (HTRF assay); type: cell-based; details: 6 h treatment, IC50 (DC50) of BTK degradation
T1 construct: High control=Cell group with added DMSO and without compound, indicating microplate readings without BTK degradation; endogenous in cells; host or cells: TMD-8
T1 sequence (Q06187 whole entry): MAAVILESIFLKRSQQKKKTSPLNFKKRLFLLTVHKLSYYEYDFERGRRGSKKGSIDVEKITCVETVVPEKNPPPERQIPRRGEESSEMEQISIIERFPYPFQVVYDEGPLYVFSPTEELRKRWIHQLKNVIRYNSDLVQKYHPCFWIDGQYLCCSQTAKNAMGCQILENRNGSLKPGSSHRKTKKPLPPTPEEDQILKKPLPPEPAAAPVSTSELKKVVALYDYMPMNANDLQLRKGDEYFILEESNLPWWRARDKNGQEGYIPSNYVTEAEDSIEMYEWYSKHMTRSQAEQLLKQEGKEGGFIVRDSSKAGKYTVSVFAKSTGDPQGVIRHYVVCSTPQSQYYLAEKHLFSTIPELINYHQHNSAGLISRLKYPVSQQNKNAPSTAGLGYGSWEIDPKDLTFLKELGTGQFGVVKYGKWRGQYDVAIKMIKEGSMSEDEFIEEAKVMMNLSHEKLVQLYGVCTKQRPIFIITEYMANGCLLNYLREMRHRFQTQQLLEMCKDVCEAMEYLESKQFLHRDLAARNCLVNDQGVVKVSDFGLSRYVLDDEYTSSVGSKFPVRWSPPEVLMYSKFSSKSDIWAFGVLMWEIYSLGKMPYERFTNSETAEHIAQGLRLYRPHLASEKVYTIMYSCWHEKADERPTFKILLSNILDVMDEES
Summary of the method: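 BTK remaining after compound treatment was measured by HTRF (337 nm excitation, 665/620 nm emission) in lysates of TMD-8 cells. Cells were exposed for 6 h to eight 6-fold-spaced concentrations in 0.2% DMSO. DC50 values were obtained from a Hill-equation fit (top, bottom, slope) of % inhibition.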

DC50 [2]	Compound	IC50 [1]
9.24 nM	COc1cc2c(cc1N1CCN(Cc3ccc4c(c3)n(C)c(=O)n4C3CCC(=O)NC3=O)CC1)[nH]c1ncnc(-c3ccc([C@@H](C)NC(=O)c4nc(C(C)(C)C)no4)c(C)c3F)c12 (stereo partly drawn) [Example 71, 3-(tert-butyl)-N-((1R)-1-(4-(7-(4-((1-(2,6-dioxopiperidin-3-yl)-3-methyl-2-oxo-2,3-dihydro-1H-benzo[d]imidazol-5-yl)methyl)piperazin-1-yl)-6-methoxy-9H-pyrimido[4,5-b]indol-4-yl)-3-fluoro-2-methylphenyl)ethyl)-1,2,4-oxadiazole-5-carboxamide]	> 10000 nM
15.9 nM	COc1cc2c(cc1N1CCN(C3CC(c4ccc([C@H]5CCC(=O)NC5=O)cc4)C3)CC1)[nH]c1ncnc(-c3ccc([C@@H](C)NC(=O)c4nc(C5(C)CC5)no4)c(C)c3F)c12 (stereo partly drawn) [Example 72, N—((R)-1-(4-(7-(4-(3-(4-((R)-2,6-dioxopiperidin-3-yl)phenyl)cyclobutyl)piperazin-1-yl)-6-methoxy-9H-pyrimido[4,5-b]indol-4-yl)-3-fluoro-2-methylphenyl)ethyl)-3-(1-methylcyclopropyl)-1,2,4-oxadiazole-5-carboxamide]	> 10000 nM
1.27 nM	COc1cc2c(cc1N1CCN(Cc3ccc4c(c3)C(C)(C)C(=O)N4C3CCC(=O)NC3=O)CC1)[nH]c1ncnc(-c3ccc([C@@H](C)NC(=O)c4nc(C(C)(C)C)no4)c(C)c3)c12 (stereo partly drawn) [Example 73, 3-(tert-butyl)-N-((1R)-1-(4-(7-(4-((1-(2,6-dioxopiperidin-3-yl)-3,3-dimethyl-2-oxoindolin-5-yl)methyl)piperazin-1-yl)-6-methoxy-9H-pyrimido[4,5-b]indol-4-yl)-2-methylphenyl)ethyl)-1,2,4-oxadiazole-5-carboxamide]	> 10000 nM
2.04 nM	COc1cc2c(cc1N1CCN(Cc3ccc4c(c3)C(C)(C)C(=O)N4C3CCC(=O)NC3=O)CC1)[nH]c1ncnc(-c3ccc([C@@H](C)NC(=O)c4nc(C5(C)CC5)no4)c(C)c3)c12 (stereo partly drawn) [Example 74, N-((1R)-1-(4-(7-(4-((1-(2,6-dioxopiperidin-3-yl)-3,3-dimethyl-2-oxoindolin-5-yl)methyl)piperazin-1-yl)-6-methoxy-9H-pyrimido[4,5-b]indol-4-yl)-2-methylphenyl)ethyl)-3-(1-methylcyclopropyl)-1,2,4-oxadiazole-5-carboxamide]	> 10000 nM
> 2000 nM	COc1cc2c(cc1N1CCN(Cc3ccc(SC4CCC(=O)NC4=O)cc3)CC1)[nH]c1ncnc(-c3ccc([C@@H](C)NC(=O)c4nc(C(C)(C)C)no4)c(C)c3)c12 (stereo partly drawn) [Example 75, 3-(tert-butyl)-N-((1R)-1-(4-(7-(4-(4-((2,6-dioxopiperidin-3-yl)thio)benzyl)piperazin-1-yl)-6-methoxy-9H-pyrimido[4,5-b]indol-4-yl)-2-methylphenyl)ethyl)-1,2,4-oxadiazole-5-carboxamide]	> 10000 nM
1.6 nM	COc1cc2c(cc1N1CCN(Cc3ccc4c(c3)C3(CC3)C(=O)N4C3CCC(=O)NC3=O)CC1)[nH]c1ncnc(-c3ccc([C@@H](C)NC(=O)c4nc(C(C)(C)C)no4)c(C)c3)c12 (stereo partly drawn) [Example 76, 3-(tert-butyl)-N-((1R)-1-(4-(7-(4-((1′-(2,6-dioxopiperidin-3-yl)-2′-oxospiro[cyclopropane-1,3′-indolin]-5′-yl)methyl)piperazin-1-yl)-6-methoxy-9H-pyrimido[4,5-b]indol-4-yl)-2-methylphenyl)ethyl)-1,2,4-oxadiazole-5-carboxamide]	> 10000 nM
8.48 nM	COc1cc2c(cc1N1CCN(Cc3ccc(SC4CCC(=O)NC4=O)cc3)CC1)[nH]c1ncnc(-c3ccc([C@@H](C)NC(=O)c4nc(C5(C)CC5)no4)c(C)c3)c12 (stereo partly drawn) [Example 77, N-((1R)-1-(4-(7-(4-(4-((2,6-dioxopiperidin-3-yl)thio)benzyl)piperazin-1-yl)-6-methoxy-9H-pyrimido[4,5-b]indol-4-yl)-2-methylphenyl)ethyl)-3-(1-methylcyclopropyl)-1,2,4-oxadiazole-5-carboxamide]	> 10000 nM
